Assay results published in patent EP4603105A1, “PHARMACEUTICAL COMPOSITION CONTAINING CYCLIC COMPOUND HAVING SELECTIVE KRAS INHIBITORY EFFECT AGAINST HRAS AND NRAS” (CHUGAI SEIYAKU KABUSHIKI KAISHA, priority 2022, dated 2024).
*1 amine or outer side, *2 acyl side, *3 side chain or, on linkers, in order; H or OH if unused. Where a SMILES comes first, the peptide text is derived from it. Bridges are numbered along the chain shown (N, C = ends). [ ]: non-standard residue; d: D form. The star is where a group is joined. hPhe(3,5-F2-4-CF3) = N[C@@H](CCc1cc(F)c(C(F)(F)F)c(F)c1)C(=O)O; hPhe(3-Cl-4-CF3) = N[C@@H](CCc1ccc(C(F)(F)F)c(Cl)c1)C(=O)O; NPrPhe(4-CF3) = CCCN[C@@H](Cc1ccc(C(F)(F)F)cc1)C(=O)O; 3Oxa8azabicyclo(3.2.1)octane = C1CC2COCC1N2*; X8 = CCCN([C@@H](COCCC(C)C)C(=O)[*:2])[*:1]; NMeGly(cPent) = CN[C@H](C(=O)O)C1CCCC1; X7 = C[C@@](N[*:1])(C(=O)[*:2])C1CC1; NMeD = CN[C@@H](CC(=O)O)C(=O)O; NMeL = CN[C@@H](CC(C)C)C(=O)O; Morpholide = C1CN(*)CCO1; NMeA = CN[C@@H](C)C(=O)O; Ac5c = NC1(C(=O)O)CCCC1; Aze = O=C(O)[C@@H]1CCN1; Ac4c = NC1(C(=O)O)CCC1; Sar = CNCC(=O)O

Assays:
[1] = molecular target: GDP-bound NRAS wild-type protein (Homo sapiens, UniProt P01111); experiment: Binding to NRAS by surface plasmon resonance (SPR), KD and KD ratio to KRAS
In short: (§1)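 GDP-loaded biotinylated Avi-tag RAS proteins (E. coli-expressed) captured on a Biotin CAPture chip at ~100–300 RU; single-cycle kinetics at 30°C, 100 µL/min, 75 s injections of rising compound concentrations. HBS pH 7.4 running buffer with 1 mM DTT, 10 mM MgCl2, 10 µM GDP, 4% DMSO. KD from 1:1 binding fit.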

[2] = molecular target: GDP-bound KRAS wild-type protein (Homo sapiens, UniProt P01116); experiment: Binding to KRAS by surface plasmon resonance (SPR), dissociation constant KD
In short: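 Affinity is measured by surface plasmon resonance at 30°C against captured, GDP-loaded RAS carrying a biotinylated Avi tag. Compounds are titrated by single-cycle kinetics, and KD comes from a 1:1 fit.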

[3] = molecular target: HRAS wild-type protein (Homo sapiens, UniProt P01112); experiment: Binding to HRAS by surface plasmon resonance (SPR), KD and KD ratio to KRAS
In short: as §1

[4] = tested on: human lung cancer strain NCI-H441; format: cell-based
In short: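 Readout: […] after the ATP-based reagent. Compound: serial dilutions in dimethyl sulfoxide.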

[5] = ratio of KD value for GDP-bound NRAS wild-type protein to KD value for KRAS (SPR)
[6] = Single Cycle Kinetics, 1:1 binding model
[7] = ratio of KD value for HRAS wild-type protein to KD value for KRAS (SPR)
[8] = ratio of KD for GDP-bound NRAS wild-type protein to KD for KRAS
[9] = ratio of KD for HRAS wild-type protein to KD for KRAS
[10] = ratio of the KD value with respect to GDP-bound NRAS wild-type protein to the KD value with respect to KRAS
[11] = ratio of the KD value with respect to HRAS wild-type protein to the KD value with respect to KRAS

Chain of GDP-bound NRAS wild-type protein (P01111 whole entry): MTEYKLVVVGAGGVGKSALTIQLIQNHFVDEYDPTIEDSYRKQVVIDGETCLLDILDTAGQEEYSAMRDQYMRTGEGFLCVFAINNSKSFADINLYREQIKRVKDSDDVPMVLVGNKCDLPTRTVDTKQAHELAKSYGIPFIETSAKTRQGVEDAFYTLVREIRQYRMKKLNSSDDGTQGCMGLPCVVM
Chain of GDP-bound KRAS wild-type protein (P01116 1-188 isoform P01116-2): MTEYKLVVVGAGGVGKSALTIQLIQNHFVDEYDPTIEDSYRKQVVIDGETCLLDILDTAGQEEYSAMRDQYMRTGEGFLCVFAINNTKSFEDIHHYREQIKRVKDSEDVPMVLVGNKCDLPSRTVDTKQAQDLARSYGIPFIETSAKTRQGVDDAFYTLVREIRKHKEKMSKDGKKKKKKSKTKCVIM
Chain of HRAS wild-type protein (P01112 whole entry): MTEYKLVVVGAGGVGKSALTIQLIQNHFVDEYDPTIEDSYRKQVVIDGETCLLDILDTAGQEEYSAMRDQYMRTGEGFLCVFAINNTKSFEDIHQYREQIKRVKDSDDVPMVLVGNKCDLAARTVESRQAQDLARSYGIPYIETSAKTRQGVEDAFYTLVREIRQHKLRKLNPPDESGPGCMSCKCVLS

Row | Compound | NRAS /KRAS [1, 5] | Kd [2, 6] [nM] | HRAS /KRAS [3, 7] | IC50 [4] [nM] | NRAS /KRAS [1, 8] | Kd ([2]; Single Cycle Kinetics) [nM] | HRAS /KRAS [3, 9] | NRAS /KRAS [1, 10] | HRAS /KRAS [3, 11] | Kd ([2]; 1:1 binding model) [nM]
1 | CCCN1C(=O)[C@@H]2CCN2C(=O)[C@H](C)N(C)C(=O)[C@H]([C@@H](C)CC)NC(=O)[C@H](CC(C)C)N(C)C(=O)C[C@@H](C(=O)N2CCOCC2)N(C)C(=O)[C@H](C2CCCC2)N(C)C(=O)C2(CCC2)NC(=O)[C@@H]2CCCN2C(=O)[C@H](CCc2ccc(C(F)(F)F)c(Cl)c2)NC(=O)CN(C)C(=O)[C@@H]1COCCC(C)C [PP1819] ([NMeL]I[NMeA][Aze][X8][Sar][hPhe(3-Cl-4-CF3)]P[Ac4c][NMeGly(cPent)][NMeD]-Morpholide; lactam N-11) | C (A compound having a KD ratio of 0.1 or more and less than 3 is denoted as C) | 1 | C (A compound having a KD ratio of 0.1 or more and less than 3 is denoted as C) | 149 |  |  |  |  |  | 
2 | CCO[C@@H]1C[C@H]2C(=O)NC3(CCC3)C(=O)N(C)[C@@H](C(CC)CC)C(=O)N(C)[C@H](C(=O)N(C)C)CC(=O)N(C)[C@@H](CC3CC3)C(=O)N[C@@H]([C@@H](C)CC)C(=O)N(C)CC(=O)N(C)[C@H]3C/C=C\CCN(C3=O)[C@@H](Cc3ccc(F)cc3C)C(=O)N(C)CC(=O)N[C@@H](CCc3cc(F)c(C(F)(F)F)c(F)c3)C(=O)N2C1 [PP1514] | A (a compound having 10 or more and less than 20 is denoted as A) | 0.65 | A (a compound having 10 or more and less than 20 is denoted as A) | 72.7 |  |  |  |  |  | 
3 | CCO[C@@H]1C[C@H]2C(=O)NC3(CCC3)C(=O)N(C)[C@@H](C3CCCC3)C(=O)N(C)[C@H](C(=O)N(C)C)CC(=O)N(C)[C@@H](CC)C(=O)N[C@@H]([C@@H](C)CC)C(=O)N(C)CC(=O)N(C)[C@H]3CCCCCN(C3=O)[C@@H](Cc3nccs3)C(=O)N(C)CC(=O)N[C@@H](CCc3cc(F)c(C(F)(F)F)c(F)c3)C(=O)N2C1 [PP0913] |  |  |  | 206 | B (a compound having 3 or more and less than 10 is denoted as B) | 1.1 | B (a compound having 3 or more and less than 10 is denoted as B) |  |  | 
4 | CCC[C@H]1C(=O)N[C@@H]([C@@H](C)CC)C(=O)N(C)CC(=O)N(C)[C@H]2C/C=C\CCN(C2=O)[C@@H](Cc2ccc(C)cc2)C(=O)N(C)CC(=O)N[C@@H](CCc2ccc(C(F)(F)F)c(Cl)c2)C(=O)N2C[C@H](CC)C[C@H]2C(=O)NC2(CCC2)C(=O)N(C)[C@@H](C2CCCC2)C(=O)N(C)[C@H](C(=O)N(C)C)CC(=O)N1C [PP2237] |  | 0.14 |  | 64.7 |  |  |  | A (a compound having 10 or more and less than 20 is denoted as A) | A (a compound having 10 or more and less than 20 is denoted as A) | 
5 | CCC(CC)[C@H]1C(=O)N(C)[C@H](C(=O)N(C)C)CC(=O)N(C)[C@@H](COC)C(=O)N[C@@H]([C@@H](C)CC)C(=O)N(C)CC(=O)N(C)[C@H]2C/C=C\CCN(C2=O)[C@@H](Cc2ccc(C)cc2)C(=O)N(C)CC(=O)N[C@@H](CCc2ccc(C(F)(F)F)c(OC)c2)C(=O)N2CCOC[C@H]2C(=O)NC2(CC(C)(C)C2)C(=O)N1C [PP2938] |  |  |  | 104 | AA (a compound having 20 or more is denoted as AA) |  | A (a compound having 10 or more and less than 20 is denoted as A) |  |  | 1.1
6 | CCO[C@@H]1C[C@H]2C(=O)NC3(CCC3)C(=O)N(C)[C@@H](C3CCCC3)C(=O)N(C)[C@H](C(=O)N(C)C)CC(=O)N(C)[C@@H](Cc3ccccc3)C(=O)N[C@@H]([C@@H](C)CC)C(=O)N(C)CC(=O)N(C)[C@H]3CCCCCN(C3=O)[C@@H](Cc3ccc(C(F)(F)F)cc3)C(=O)N(C)CC(=O)N[C@@H](CCc3cc(F)c(C(F)(F)F)c(F)c3)C(=O)N2C1 [PP0672] |  | 0.3 |  | 19.7 |  |  |  | B (a compound having 3 or more and less than 10 is denoted as B) | B (a compound having 3 or more and less than 10 is denoted as B) | 
7 | CCCN1C(=O)[C@@H]2CCN2C(=O)[C@H](C)N(C)C(=O)[C@H]([C@@H](C)CC)NC(=O)[C@H](CC(C)C)N(C)C(=O)C[C@@H](C(=O)N2C3CCC2COC3)N(C)C(=O)[C@H](C2CCCC2)N(C)C(=O)C2(CCCC2)NC(=O)[C@@H]2CCCN2C(=O)[C@H](CCc2ccc(C(F)(F)F)c(Cl)c2)NC(=O)CN(C)C(=O)[C@@H]1Cc1ccc(C(F)(F)F)cc1 [PP0182] ([NMeL]I[NMeA][Aze][NPrPhe(4-CF3)][Sar][hPhe(3-Cl-4-CF3)]P[Ac5c][NMeGly(cPent)][NMeD]-{3Oxa8azabicyclo(3.2.1)octane}; lactam N-11) |  |  |  | 6.2 | C (A compound having a KD ratio of 0.1 or more and less than 3 is denoted as C) |  | B (a compound having 3 or more and less than 10 is denoted as B) |  |  | 0.88
8 | CCO[C@@H]1C[C@H]2C(=O)NC(C)(C)C(=O)N(C)[C@@H](C3CCCC3)C(=O)N(CC)[C@H](C(=O)N3CCOCC3)CC(=O)N(C)[C@@H](CC(C)C)C(=O)N[C@@H]([C@@H](C)CC)C(=O)N(C)CC(=O)N(C)[C@H]3CCCCCN(C3=O)[C@@H](Cc3ccc(C(F)(F)F)cc3)C(=O)N(C)CC(=O)N[C@@H](CCc3cc(F)c(C(F)(F)F)c(F)c3)C(=O)N2C1 [PP0958] |  |  |  | 1040 | B (a compound having 3 or more and less than 10 is denoted as B) | 7.5 | B (a compound having 3 or more and less than 10 is denoted as B) |  |  | 
9 | CCO[C@@H]1C[C@H]2C(=O)NC3(CCC3)C(=O)N(C)[C@@H](C3CCCC3)C(=O)N(C)[C@H](C(=O)N3CCOCC3)CC(=O)N(C)[C@@H](COCC(F)(F)F)C(=O)N[C@@H]([C@@H](C)CC)C(=O)N(C)CC(=O)N(C)[C@H]3CCCCCN(C3=O)[C@@H](Cc3ccc(C(F)(F)F)cc3)C(=O)N(C)CC(=O)N[C@@H](CCc3cc(F)c(C(F)(F)F)c(F)c3)C(=O)N2C1 [PP0853] |  |  |  | 24.3 | B (a compound having 3 or more and less than 10 is denoted as B) | 0.67 | B (a compound having 3 or more and less than 10 is denoted as B) |  |  | 
10 | CCCN1C(=O)CN(C)C(=O)[C@@H]2CCN2C(=O)[C@H]([C@@H](C)CC)NC(=O)[C@H](CC(C)C)N(C)C(=O)C[C@@H](C(=O)N2CCOCC2)N(C)C(=O)[C@H](C2CCCC2)N(C)C(=O)[C@](C)(C2CC2)NC(=O)[C@@H]2CCCN2C(=O)[C@H](CCc2cc(F)c(C(F)(F)F)c(F)c2)NC(=O)CN(C)C(=O)[C@@H]1Cc1ccc(C(F)(F)F)cc1 [PP0772] ([NMeL]I[Aze][Sar][NPrPhe(4-CF3)][Sar][hPhe(3,5-F2-4-CF3)]P[X7][NMeGly(cPent)][NMeD]-Morpholide; lactam N-11) |  |  |  | 434 | B (a compound having 3 or more and less than 10 is denoted as B) | 4.3 | B (a compound having 3 or more and less than 10 is denoted as B) |  |  | 
11 | CCO[C@@H]1C[C@H]2C(=O)NC3(CCC3)C(=O)N(C)[C@@H](C3CCCC3)C(=O)N(C)[C@H](C(=O)N(C)C)CC(=O)N(C)[C@@H](CC)C(=O)N[C@@H]([C@@H](C)CC)C(=O)N3CC[C@@H]3C(=O)N(C)[C@H]3C/C=C\CCN(C3=O)[C@@H](Cc3ccc(C(F)(F)F)cc3)C(=O)N(C)CC(=O)N[C@@H](CCc3cc(F)c(C(F)(F)F)c(F)c3)C(=O)N2C1 [PP1064] |  |  |  | 1390 | A (a compound having 10 or more and less than 20 is denoted as A) | 17 | A (a compound having 10 or more and less than 20 is denoted as A) |  |  | 
12 | CCC(CC)[C@H]1C(=O)N(C)[C@H](C(=O)N(C)C)CC(=O)N(C)[C@@H](COC)C(=O)N[C@@H]([C@@H](C)CC)C(=O)N(C)CC(=O)N(C)[C@H]2C/C=C\CCN(C2=O)[C@@H](Cc2ccc(C)cc2)C(=O)N(C)CC(=O)N[C@@H](CCc2ccc(C(F)(F)F)c(OC)c2)C(=O)N2CCCC[C@H]2C(=O)NC2(CC(C)(C)C2)C(=O)N1C [PP2937] |  |  |  | 137 | A (a compound having 10 or more and less than 20 is denoted as A) |  | A (a compound having 10 or more and less than 20 is denoted as A) |  |  | 1.1
13 | CC[C@H](C)[C@@H]1NC(=O)[C@H](CC(C)C)N(C)C(=O)C[C@@H](C(=O)N(CC)CC)N(C)C(=O)[C@H](C2CCCC2)N(C)C(=O)C2(CCC2)NC(=O)[C@@H]2C[C@@H](C)CN2C(=O)[C@H](CCc2ccc(C(F)(F)F)c(OC)c2)NC(=O)CN(C)C(=O)[C@H](Cc2ccc(C)cc2)N2CC/C=C\C[C@@H](C2=O)N(C)C(=O)CN(C)C1=O [PP1849] | A (a compound having 10 or more and less than 20 is denoted as A) | 0.38 | A (a compound having 10 or more and less than 20 is denoted as A) | 37.1 |  |  |  |  |  | 
14 | CC[C@H](C)[C@@H]1NC(=O)[C@H](COC)N(C)C(=O)C[C@@H](C(=O)N(C)C)N(C)C(=O)[C@H](C2CCCC2)N(C)C(=O)C2(CC(C)(C)C2)NC(=O)CNC(=O)[C@H](CCc2ccc(C(F)(F)F)c(Cl)c2)NC(=O)CN(C)C(=O)[C@H](Cc2ccc(C(F)(F)F)cc2)N2CC/C=C\C[C@@H](C2=O)N(C)C(=O)CN(C)C1=O [PP3134] |  |  |  | 812 | AA (a compound having 20 or more is denoted as AA) |  | A (a compound having 10 or more and less than 20 is denoted as A) |  |  | 0.33
